Source: article PMC6691805 (Journal of Enzyme Inhibition and Medicinal Chemistry, 2019)

Biological target: T1, 17β-HSD1 (Homo sapiens, UniProt P14061)
T1 sequence (P14061 1-328): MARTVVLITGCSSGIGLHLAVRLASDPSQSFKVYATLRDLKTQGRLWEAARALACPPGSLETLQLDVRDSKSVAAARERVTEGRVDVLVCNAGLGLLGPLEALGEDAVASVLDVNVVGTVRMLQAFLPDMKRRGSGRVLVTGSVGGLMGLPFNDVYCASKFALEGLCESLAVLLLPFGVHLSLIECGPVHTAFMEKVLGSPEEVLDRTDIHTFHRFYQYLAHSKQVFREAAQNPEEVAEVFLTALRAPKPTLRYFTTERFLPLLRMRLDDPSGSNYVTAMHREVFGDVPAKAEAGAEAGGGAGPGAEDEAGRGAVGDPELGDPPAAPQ
Format: biochemical

SMILES: COC(=O)CO[C@@H]1CC(=O)[C@@]2(C)CC[C@@H]3c4ccc(OCc5ccccc5)cc4CC[C@H]3[C@H]12 [Compound 22, 3-Benzyloxy-15β-(2’-methoxy-2’-oxoethoxy)-estra-1,3,5(10)-trien-17-one]
- cofactor preference in terms of RIP values, favouring the NADPH bound enzyme (cofactor preference for NADPH in terms of RIP values): 2–11 fold
- 17β-HSD1 inhibitory effect (in words) (evaluation of potentials obtained with NADPH): potent inhibitors
